Measurements taken from US20250332173A1, “COMPOUNDS AND METHODS FOR MODULATING NUCLEIC ACID SPLICING” (REMIX THERAPEUTICS INC., priority 2021, published 2025).
Read-outs that look alike come from different tables or passages of the source.

What was measured:
HTT mRNA = experiment: RT-qPCR splicing assay, HTT canonical junction (CJ) and alternative junction (AJ) mRNA; type: cell-based, human; settings: for AC50: increase in HTT alternative junction (AJ) mRNA, read-out: HTT AJ AC50
Summary of the method: (§1)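 Read-out is one-step RT-qPCR on cell lysates detecting the exon-exon junction of each isoform, normalized to a housekeeping gene (PPIA in A673, GAPDH or GUSB in K562).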

[1] = tested on: K562 (human chronic myelogenous leukemia) cells; experiment: Cell Titer Glo 2.0 cell viability assay; type: cell-based; settings: Homo sapiens, K562, 72 h, K562 cells, 72 hours, Cell Titer Glo 2.0; read-out: K562 GI50
Method: Compounds described herein were screened for toxicity in K562 (human chronic myelogenous leukemia) cells using a Cell Titer Glo 2.0 assay.
Cells were plated at 500 cells/well (K562 cells) in 45 μL of IMDM supplemented with 1000 FBS in a 384-well opaque plate. Wells containing only medium were used as a blank control. Test compounds (e.g., compounds ofFormula (I), (II), (III), (IV), (V), (VI), (VII), (VIII), and (IX)) were first serially diluted in DMSO then diluted 1:100 with IMDM+10% FBS. The final concentration of DMSO was 0.1% in each well. The cells were incubated for 72 hours at 37° C. and 500 CO2 before assaying with Cell Titer Glo 2.0 reagent.

MYB mRNA = experiment: RT-qPCR splicing assay, MYB canonical junction (CJ) and alternative junction (AJ) mRNA; type: cell-based, human; settings: for AC50: increase in MYB alternative junction (AJ) mRNA, read-out: MYB AJ AC50
Summary of the method: as §1

[2] = Homo sapiens, decrease in HTT canonical junction (CJ) mRNA, RT-qPCR, read-out: HTT CJ IC50
[3] = Homo sapiens, Table 5 panel, canonical junction qPCR, compound concentration having 50% response in CJ decrease, read-out: HTT IC50 (decrease in CJ mRNA levels)
[4] = Homo sapiens, Table 5 panel, canonical junction qPCR, compound concentration having 50% response in CJ decrease, read-out: MYB IC50 (decrease in CJ mRNA levels)
[5] = Homo sapiens, decrease in MYB canonical junction (CJ) mRNA, RT-qPCR, read-out: MYB CJ IC50

Row | Structure (SMILES) | IC50 (HTT mRNA; [2]) [nM] | IC50 (HTT mRNA; [3]) [nM] | GI50 [1] [nM] | IC50 (MYB mRNA; [4]) [nM] | IC50 (MYB mRNA; [5]) [nM] | IC50 (HTT mRNA; Table 5 panel, canonical junction qPCR, compound concentration having 50% response in CJ decrease, read-out: HTT IC50 (decrease in CJ mRNA levels)) [nM] | IC50 (HTT mRNA; decrease in HTT canonical junction (CJ) mRNA, RT-qPCR, read-out: HTT CJ IC50) [nM] | IC50 (MYB mRNA; Table 5 panel, canonical junction qPCR, compound concentration having 50% response in CJ decrease, read-out: MYB IC50 (decrease in CJ mRNA levels)) [nM] | IC50 (MYB mRNA; decrease in MYB canonical junction (CJ) mRNA, RT-qPCR, read-out: MYB CJ IC50) [nM] | AC50 (HTT mRNA; Homo sapiens, RT-qPCR) [nM] | AC50 (MYB mRNA; Homo sapiens, RT-qPCR) [nM] | AC50 (HTT mRNA; RT-qPCR) [nM] | AC50 (MYB mRNA; RT-qPCR) [nM]
1 | Cc1cn2nc(-c3cc(F)c4c(=O)n(C5CCNCC5)cnc4c3)cc(C)c2n1 [Compound 243] | < 100 | < 100 | < 100 | < 100 | < 100 |  |  |  |  | < 100 | < 100 |  | 
2 | Cc1cn2cc(-c3ccc4c(=O)n(C5CCNCC5)cnc4c3)c(C)cc2n1 [Compound 244] | > 10000 | > 10000 | > 10000 | > 10000 | > 10000 |  |  |  |  | > 10000 | > 10000 |  | 
3 | Cc1nc2c(F)cc(-c3ccc4c(=O)n(C5CCNCC5)cnc4c3)cc2o1 [Compound 245] | 100 to 1000 | 100 to 1000 | 100 to 1000 | 100 to 1000 | 100 to 1000 |  |  |  |  | 100 to 1000 | 100 to 1000 |  | 
4 | Cc1cn2cc(-c3ccc4c(=O)n(C5CCN(C)CC5)cnc4c3)c(C)cc2n1 [Compound 246] | 1000 to 10000 | 1000 to 10000 | 1000 to 10000 | 1000 to 10000 | 1000 to 10000 |  |  |  |  | 1000 to 10000 | 1000 to 10000 |  | 
5 | Cc1cn2cc(-c3ccc4c(c3)CCN(C3CCNCC3)C4=O)cc(F)c2n1 [Compound 247] | 1000 to 10000 | 1000 to 10000 | 100 to 1000 | 100 to 1000 | 100 to 1000 |  |  |  |  | 1000 to 10000 | 100 to 1000 |  | 
6 | Cn1cc2cc(-c3ccc4c(=O)n(C5CCNCC5)ncc4c3)cc(F)c2n1 [Compound 249] | 1000 to 10000 | 1000 to 10000 | 1000 to 10000 | 1000 to 10000 | 1000 to 10000 |  |  |  |  | 1000 to 10000 | 1000 to 10000 |  | 
7 | Cc1nc2c(F)cc(-c3ccc4c(=O)n(C5CCNCC5)ncc4c3)cc2o1 [Compound 250] | < 100 | < 100 | < 100 | 100 to 1000 | 100 to 1000 |  |  |  |  | < 100 | 100 to 1000 |  | 
8 | Cc1cn2cc(-c3ccc4c(c3)CCN(C3CCNCC3)C4=O)cc(C(F)(F)F)c2n1 [Compound 252] | > 10000 | > 10000 | 1000 to 10000 | 1000 to 10000 | 1000 to 10000 |  |  |  |  | > 10000 | 1000 to 10000 |  | 
9 | Cc1nc2c(F)cc(-c3ccc4c(=O)n(C5CCNCC5)ncc4c3)cc2s1 [Compound 253] | 1000 to 10000 | 1000 to 10000 | 100 to 1000 | 1000 to 10000 | 1000 to 10000 |  |  |  |  | 1000 to 10000 | 1000 to 10000 |  | 
10 | Cc1cn2nc(-c3ccc4c(=O)n(C5CCN(C)CC5)ncc4c3)cc(C)c2n1 [Compound 265] | < 100 | < 100 | 100 to 1000 | 100 to 1000 | < 100 |  |  |  |  | < 100 | 100 to 1000 |  | 
11 | Cc1cn2nc(-c3ccc4c(=O)n([C@@H]5CCNC6(CC6)C5)cnc4c3)cc(C)c2n1 [Compound 444] |  |  | 100 to 1000 |  |  | 100 to 1000 | 100 to 1000 | < 100 | < 100 |  |  | 100 to 1000 | < 100

Second part, led by results:

Row | IC50 (HTT mRNA; [2]) [nM] | IC50 (HTT mRNA; [3]) [nM] | GI50 [1] [nM] | IC50 (MYB mRNA; [4]) [nM] | IC50 (MYB mRNA; [5]) [nM] | IC50 (HTT mRNA; Table 5 panel, canonical junction qPCR, compound concentration having 50% response in CJ decrease, read-out: HTT IC50 (decrease in CJ mRNA levels)) [nM] | IC50 (HTT mRNA; decrease in HTT canonical junction (CJ) mRNA, RT-qPCR, read-out: HTT CJ IC50) [nM] | IC50 (MYB mRNA; Table 5 panel, canonical junction qPCR, compound concentration having 50% response in CJ decrease, read-out: MYB IC50 (decrease in CJ mRNA levels)) [nM] | IC50 (MYB mRNA; decrease in MYB canonical junction (CJ) mRNA, RT-qPCR, read-out: MYB CJ IC50) [nM] | Structure (SMILES) | AC50 (HTT mRNA; Homo sapiens, RT-qPCR) [nM] | AC50 (MYB mRNA; Homo sapiens, RT-qPCR) [nM] | AC50 (HTT mRNA; RT-qPCR) [nM] | AC50 (MYB mRNA; RT-qPCR) [nM]
12 | 100 to 1000 | < 100 | < 100 | 100 to 1000 | 100 to 1000 |  |  |  |  | Cc1cn2cc(-c3ccc4c(=O)n(C5CCNCC5)ncc4c3)cc(F)c2n1 [Compound 248] | < 100 | 100 to 1000 |  | 
13 | 100 to 1000 | 100 to 1000 | 1000 to 10000 | 100 to 1000 | 100 to 1000 |  |  |  |  | Cc1cc(-c2ccc3c(=O)n(C4CCNCC4)ncc3c2)cc2cn(C)nc12 [Compound 251] | 100 to 1000 | 100 to 1000 |  | 
14 | 1000 to 10000 | 1000 to 10000 | 1000 to 10000 | 1000 to 10000 | 1000 to 10000 |  |  |  |  | Cc1cn2cc(-c3ccc4c(=O)n(C5CCNCC5)ncc4c3)c(C)cc2n1 [Compound 254] | 1000 to 10000 | 1000 to 10000 |  | 
15 | 1000 to 10000 | 1000 to 10000 | 100 to 1000 | 1000 to 10000 | 1000 to 10000 |  |  |  |  | Cc1cn2cc(-c3ccc4c(=O)n(C5CCNCC5)ncc4c3)ncc2n1 [Compound 255] | 1000 to 10000 | 1000 to 10000 |  | 
16 | 100 to 1000 | 100 to 1000 | < 100 | 100 to 1000 | 100 to 1000 |  |  |  |  | Cc1cn2cc(-c3ccc4c(=O)n(C5CCNCC5)ncc4c3)cc(Cl)c2n1 [Compound 256] | 100 to 1000 | 100 to 1000 |  | 
17 | 100 to 1000 | 100 to 1000 | < 100 | 100 to 1000 | 100 to 1000 |  |  |  |  | Cc1cn2cc(-c3ccc4c(=O)n(C5CCNCC5)ncc4c3)cc(C)c2n1 [Compound 257] | 100 to 1000 | 100 to 1000 |  | 
18 | 100 to 1000 | 100 to 1000 | 100 to 1000 | 100 to 1000 | 100 to 1000 |  |  |  |  | Cc1cn2nc(-c3ccc4c(=O)n(C5CCNCC5)ncc4c3)nc2c(C)n1 [Compound 259] | 100 to 1000 | 100 to 1000 |  | 
19 | 100 to 1000 | 100 to 1000 | 100 to 1000 | 1000 to 10000 | 100 to 1000 |  |  |  |  | Cc1cn2nc(-c3ccc4c(=O)n(C5CCNCC5)ncc4c3)cc2c(C)n1 [Compound 260] | 100 to 1000 | 1000 to 10000 |  | 
20 | > 10000 | > 10000 | > 10000 | > 10000 | > 10000 |  |  |  |  | O=c1c2ccc(-c3cn[nH]c3)cc2cnn1C1CCNCC1 [Compound 261] | > 10000 | > 10000 |  | 
21 | 1000 to 10000 | 1000 to 10000 | 100 to 1000 | 1000 to 10000 | 100 to 1000 |  |  |  |  | Cc1cn2cc(-c3ccc4c(=O)n(C5CCNCC5)ncc4c3)cc(C(F)(F)F)c2n1 [Compound 262] | 1000 to 10000 | 1000 to 10000 |  | 
22 | > 10000 | > 10000 | 1000 to 10000 | > 10000 | > 10000 |  |  |  |  | Cn1cc2ccc(-c3ccc4c(=O)n(C5CCNCC5)ncc4c3)cc2n1 [Compound 263] | > 10000 | > 10000 |  | 
23 | 1000 to 10000 | 1000 to 10000 | 1000 to 10000 | 1000 to 10000 | 1000 to 10000 |  |  |  |  | Cc1cn2nc(-c3ccc4c(=O)n(C5CCNC5)ncc4c3)cc(C)c2n1 (centres unmarked) [Compound 264] | 1000 to 10000 | 1000 to 10000 |  | 
